Source: US20260078341A1, “TREATMENT OF CANCER USING CHIMERIC ANTIGEN RECEPTOR” (Novartis AG, priority 2014, published 2026)
Read-outs that look alike come from different tables or passages of the source.

Columns and labels:
[1] = for Treatment-related AE: Blood cholesterol increased / Treatment-related AE: Conjunctivitis / Treatment-related AE: Diarrhea / Treatment-related AE: Dry mouth / Treatment-related AE: Dyspepsia / Treatment-related AE: Erythema / Treatment-related AE: Fatigue / Treatment-related AE: Headache / Treatment-related AE: Insomnia / Treatment-related AE: Limb discomfort / Treatment-related AE: Low density lipoprotein increased / Treatment-related AE: Mouth ulceration / Treatment-related AE: Mucosal inflammation / Treatment-related AE: Neutropenia / Treatment-related AE: Oral pain / Treatment-related AE: Paresthesia oral / Treatment-related AE: Pruritus / Treatment-related AE: Stomatitis / Treatment-related AE: Thrombocytopenia / Treatment-related AE: Tongue ulceration / Treatment-related AE: Urinary tract infection / Treatment-related AEs: Patients with AE(s) / Treatment-related AEs: Total AE(s): N = 53
H3N2 A/Victoria/210/2009 = test: Hemagglutination inhibition titers after influenza vaccination, A/H3N2 vaccine strain; format: in vivo, human; settings: for HI GMT ratio (CV %) A/H3N2: GMT at week 4 post vaccination/GMT at baseline
Description: The trial was observer-blind because the placebo in the RAD001 0.5 mg daily and 20 mg weekly cohorts differed slightly from the RAD001 tablets in those cohorts. […] The treatment duration for all cohorts was 6 weeks during which time subjects underwent safety evaluations in the clinic every 2 weeks. After subjects had been dosed for 4 weeks, RAD001 steady state levels were measured pre-dose and at one hour post dose. After completing the 6 week course of study drug, subjects were given a 2 week drug free break to reverse any possible RAD001-induced immunosuppression, and then were given a 2012 seasonal influenza vaccination (Agrippal®, Novartis Vaccines and Diagnostics, Siena, Italy) containing the strains H1N1 A/California/07/2009, H3N2 A/Victoria/210/2009, B/Brisbane/60/2008. Four weeks after influenza vaccination, subjects had serum collected for influenza titer measurements. Antibody titers to the 3 influenza vaccine strains as well as to 2 heterologous strains (A/H1N1 strain A/New Jersy/8/76 and A/H3N2 strain A/Victoria/361/11) were measured by standard hemagglutination inhibition assay (Kendal, A P et al. (1982) Concepts and procedures for laboratory-based influenza surveillance. Atlanta: Centers for Disease Control and Prevention B17-B35). Levels of IgG and IgM specific for the A/H1N1/California/07/2009 were measured in serum samples taken before and 4 weeks after influenza vaccination as described previously (Spensieri, F. et al. (2013) Proc. Natl. Acad. Sci. USA 110:14330-14335). Results were expressed as fluorescence intensity.
The primary analysis of geometric mean titer ratios was done using a normal Bayesian regression model with non-informative priors. This model was fitted to each antibody titer on the log scale. The primary outcome in each model was the Day 84 measurement. The Day 63 measurement was included in the outcome vector. The model fitted using SAS 9.2 proc mixed with the prior statement. The covariance structure of the matrix was considered as unstructured (option type=UN). A flat prior was used. For the secondary analysis of seroconversion rates, logistic regression was used.
The ability of RAD001 to improve immune function in elderly volunteers was evaluated by measuring the serologic response to the 2012 seasonal influenza vaccine. The hemagglutination inhibition (HI) geometric mean titers (GMT) to each of the 3 influenza vaccine strains at baseline and 4 weeks after influenza vaccination are provided in Table 6. The primary analysis variable was the HI GMT ratio (4 weeks post vaccination/baseline). […] This endpoint was chosen because a 1.2-fold increase in the influenza GMT ratio induced by the MF-59 vaccine adjuvant was associated with a decrease in influenza illness (Iob, A et al. (2005) Epidemiol Infect 133:687-693).
Rates of seroconversion 4 weeks after influenza vaccination were also evaluated. Seroconversion was defined as the change from a negative pre-vaccination titer (i.e., HI titer <1:10) to post-vaccination HI titer ≥1:40 or at least 4-fold increase from a non-negative (>1:10) pre-vaccination HI titer.

## CO[C@H]1C[C@@H]2CC[C@@H](C)[C@@](O)(O2)C(=O)C(=O)N2CCCC[C@H]2C(=O)O[C@H]([C@H](C)C[C@@H]2CC[C@@H](OCCO)[C@H](OC)C2)CC(=O)[C@H](C)/C=C(\C)[C@@H](O)[C@@H](OC)C(=O)[C@H](C)C[C@H](C)/C=C/C=C/C=C/1C [RAD001, (1R,9S,12S,15R,16E,18R,19R,21R,23S,24E,26E,28E,30S,32S,35R)-1,18-dihydroxy-12-{(1R)-2-[(1S,3R,4R)-4-(2-hydroxyethoxy)-3-methoxycyclohexyl]-1-methylethyl}-19,30-dimethoxy-15,17,21,23,29,35-hexamethyl-11,36-dioxa-4-azatricyclo[30.3.1.0^4,9]hexatriaconta-16,24,26,28-tetraene-2,3,10,14,20-pentaone]
[1]; RAD001 0.5 mg daily
  Treatment-related AE: Blood cholesterol increased: 2 (3.8%) n (%)
  Treatment-related AE: Conjunctivitis: 0 n (%)
  Treatment-related AE: Diarrhea: 1 (1.9%) n (%)
  Treatment-related AE: Dry mouth: 0 n (%)
  Treatment-related AE: Dyspepsia: 0 n (%)
  Treatment-related AE: Erythema: 0 n (%)
  Treatment-related AE: Fatigue: 0 n (%)
  Treatment-related AE: Headache: 0 n (%)
  Treatment-related AE: Insomnia: 1 (1.9%) n (%)
  Treatment-related AE: Limb discomfort: 0 n (%)
  Treatment-related AE: Low density lipoprotein increased: 2 (3.8%) n (%)
  Treatment-related AE: Mouth ulceration: 6 (11.3%) n (%)
  Treatment-related AE: Mucosal inflammation: 0 n (%)
  Treatment-related AE: Neutropenia: 0 n (%)
  Treatment-related AE: Oral pain: 0 n (%)
  Treatment-related AE: Paresthesia oral: 2 (3.8%) n (%)
  Treatment-related AE: Pruritus: 0 n (%)
  Treatment-related AE: Stomatitis: 0 n (%)
  Treatment-related AE: Thrombocytopenia: 0 n (%)
  Treatment-related AE: Tongue ulceration: 3 (5.7%) n (%)
  Treatment-related AE: Urinary tract infection: 0 n (%)
  Treatment-related AEs: Patients with AE(s): 22 (41.5%) n (%)
  Treatment-related AEs: Total AE(s): 35 n (%)
[1]; RAD001 5 mg weekly
  Treatment-related AE: Blood cholesterol increased: 2 (3.8%) n (%)
  Treatment-related AE: Conjunctivitis: 2 (3.8%) n (%)
  Treatment-related AE: Diarrhea: 4 (7.5%) n (%)
  Treatment-related AE: Dry mouth: 0 n (%)
  Treatment-related AE: Dyspepsia: 3 (5.7%) n (%)
  Treatment-related AE: Erythema: 2 (3.8%) n (%)
  Treatment-related AE: Fatigue: 2 (3.8%) n (%)
  Treatment-related AE: Headache: 2 (3.8%) n (%)
  Treatment-related AE: Insomnia: 2 (3.8%) n (%)
  Treatment-related AE: Limb discomfort: 2 (3.8%) n (%)
  Treatment-related AE: Low density lipoprotein increased: 1 (1.9%) n (%)
  Treatment-related AE: Mouth ulceration: 2 (3.8%) n (%)
  Treatment-related AE: Mucosal inflammation: 0 n (%)
  Treatment-related AE: Neutropenia: 0 n (%)
  Treatment-related AE: Oral pain: 2 (3.8%) n (%)
  Treatment-related AE: Paresthesia oral: 0 n (%)
  Treatment-related AE: Pruritus: 2 (3.8%) n (%)
  Treatment-related AE: Stomatitis: 0 n (%)
  Treatment-related AE: Thrombocytopenia: 0 n (%)
  Treatment-related AE: Tongue ulceration: 1 (1.9%) n (%)
  Treatment-related AE: Urinary tract infection: 0 n (%)
  Treatment-related AEs: Patients with AE(s): 20 (37.7%) n (%)
  Treatment-related AEs: Total AE(s): 46 n (%)
[1]; RAD001 20 mg weekly
  Treatment-related AE: Blood cholesterol increased: 2 (3.8%) n (%)
  Treatment-related AE: Conjunctivitis: 0 n (%)
  Treatment-related AE: Diarrhea: 1 (1.9%) n (%)
  Treatment-related AE: Dry mouth: 2 (3.8%) n (%)
  Treatment-related AE: Dyspepsia: 2 (3.8%) n (%)
  Treatment-related AE: Erythema: 0 n (%)
  Treatment-related AE: Fatigue: 4 (7.5%) n (%)
  Treatment-related AE: Headache: 9 (17.0%) n (%)
  Treatment-related AE: Insomnia: 1 (1.9%) n (%)
  Treatment-related AE: Limb discomfort: 0 n (%)
  Treatment-related AE: Low density lipoprotein increased: 2 (3.8%) n (%)
  Treatment-related AE: Mouth ulceration: 9 (17.0%) n (%)
  Treatment-related AE: Mucosal inflammation: 2 (3.8%) n (%)
  Treatment-related AE: Neutropenia: 3 (5.7%) n (%)
  Treatment-related AE: Oral pain: 1 (1.9%) n (%)
  Treatment-related AE: Paresthesia oral: 0 n (%)
  Treatment-related AE: Pruritus: 1 (1.9%) n (%)
  Treatment-related AE: Stomatitis: 2 (3.8%) n (%)
  Treatment-related AE: Thrombocytopenia: 2 (3.8%) n (%)
  Treatment-related AE: Tongue ulceration: 0 n (%)
  Treatment-related AE: Urinary tract infection: 2 (3.8%) n (%)
  Treatment-related AEs: Patients with AE(s): 27 (50.9%) n (%)
  Treatment-related AEs: Total AE(s): 109 n (%)
[1]; elderly volunteers, 6 weeks, particularly 0.5 mg daily and 5 mg weekly
  tolerability: well tolerated
H3N2 A/Victoria/210/2009; Baseline (2 weeks prior to influenza vaccination), RAD001 0.5 mg daily
  HI GMT (CV %) A/H3N2: 106.8 (168.2)
H3N2 A/Victoria/210/2009; Baseline (2 weeks prior to influenza vaccination), RAD001 5 mg weekly
  HI GMT (CV %) A/H3N2: 126.04 (162.6)
H3N2 A/Victoria/210/2009; Baseline (2 weeks prior to influenza vaccination), RAD001 20 mg weekly
  HI GMT (CV %) A/H3N2: 137.1 (211.5)
H3N2 A/Victoria/210/2009; RAD001 0.5 mg daily
  HI GMT ratio (CV %) A/H3N2: 2.1 (152.6)
H3N2 A/Victoria/210/2009; RAD001 5 mg weekly
  HI GMT ratio (CV %) A/H3N2: 2.0 (189.2)
H3N2 A/Victoria/210/2009; RAD001 20 mg weekly
  HI GMT ratio (CV %) A/H3N2: 2.1 (277.3)
H3N2 A/Victoria/210/2009; Intention to Treat Population, 0.5 mg
  Percent of subjects with seroconversion to influenza 4 weeks after vaccination, H3N2: 27%
H3N2 A/Victoria/210/2009; Intention to Treat Population, 5 mg
  Percent of subjects with seroconversion to influenza 4 weeks after vaccination, H3N2: 24%
H3N2 A/Victoria/210/2009; Intention to Treat Population, 20 mg
  Percent of subjects with seroconversion to influenza 4 weeks after vaccination, H3N2: 25%
H3N2 A/Victoria/210/2009; Subjects with Baseline Titers <=40, 0.5 mg
  Percent of subjects with seroconversion to influenza 4 weeks after vaccination, H3N2: 64%
H3N2 A/Victoria/210/2009; Subjects with Baseline Titers <=40, 5 mg
  Percent of subjects with seroconversion to influenza 4 weeks after vaccination, H3N2: 53%
H3N2 A/Victoria/210/2009; Subjects with Baseline Titers <=40, 20 mg
  Percent of subjects with seroconversion to influenza 4 weeks after vaccination, H3N2: 71%
H3N2 A/Victoria/210/2009; Week 4 after influenza vaccination, RAD001 0.5 mg daily
  HI GMT (CV %) A/H3N2: 194.4 (129.1)
H3N2 A/Victoria/210/2009; Week 4 after influenza vaccination, RAD001 5 mg weekly
  HI GMT (CV %) A/H3N2: 223.0 (118.8)
H3N2 A/Victoria/210/2009; Week 4 after influenza vaccination, RAD001 20 mg weekly
  HI GMT (CV %) A/H3N2: 223.0 (163.6)
